Experimental data from PubChem BioAssay (NCI).
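Where inhibition never reached the appropriate level, the endpoint shown equals the highest concentration tested. Otherwise, values were interpolated linearly from a five-concentration, 48-hour dose response in 96-well plates. GI50 is the concentration that inhibits growth by half. TGI denotes the concentration required for complete inhibition of growth.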

Experiments:
Assay in all cases: DTP human tumour cell line panel, 48 h
COLO 205 colon = test system: COLO 205 colon
CCRF-CEM leukemia = test system: CCRF-CEM leukemia
M14 melanoma = test system: M14 melanoma
BT-549 breast = test system: BT-549 breast
OVCAR-8 ovarian = test system: OVCAR-8 ovarian
HCT-15 colon = test system: HCT-15 colon
HOP-62 NSCLC = test system: HOP-62 NSCLC
MDA-MB-435 = test system: MDA-MB-435
UACC-62 melanoma = test system: UACC-62 melanoma
T-47D breast = test system: T-47D breast

SMILES | GI50 (COLO 205 colon) | TGI (COLO 205 colon) | GI50 (CCRF-CEM leukemia) | TGI (CCRF-CEM leukemia) | GI50 (M14 melanoma) | TGI (M14 melanoma) | GI50 (BT-549 breast) | TGI (BT-549 breast) | GI50 (OVCAR-8 ovarian) | TGI (OVCAR-8 ovarian) | GI50 (HCT-15 colon) | TGI (HCT-15 colon) | GI50 (HOP-62 NSCLC) | TGI (HOP-62 NSCLC) | GI50 (MDA-MB-435) | TGI (MDA-MB-435) | GI50 (UACC-62 melanoma) | TGI (UACC-62 melanoma) | GI50 (T-47D breast) | TGI (T-47D breast)
COc1ccc(-c2cn(-c3cc(OC)c(OC)c(OC)c3)c(=O)n2-c2ccccc2)cc1 | > 100 µM | > 100 µM | > 100 µM | > 100 µM | > 100 µM | > 100 µM | > 100 µM | > 100 µM | > 100 µM | > 100 µM | 52.6 µM | > 100 µM | 66.2 µM | > 100 µM | > 100 µM | > 100 µM | 53 µM | > 100 µM | 27300 nM | > 100 µM
COc1ccc(-c2nn(-c3cccc(Cl)c3)cc2-c2cc(-c3cccs3)no2)cc1 | 3.21 µM | 7.24 µM | 3.84 µM | > 100 µM | 3.3 µM | 17.1 µM | 4.99 µM | 21.3 µM | 4.04 µM | 36 µM | 4.48 µM | 32.9 µM | 13.9 µM | 28.1 µM | 3.26 µM | 17.3 µM | 3.55 µM | 20 µM | 3860 nM | 25.3 µM
COc1ccc(-c2nn(-c3cccc(Cl)c3)cc2/C=C2\C(=N)N(c3ccccc3)N=C2N)cc1 | 1.83 µM | 3.92 µM | 0.655 µM | > 58.7 µM | 0.331 µM | 5.42 µM | 5.75 µM | 39.2 µM | 1.12 µM | > 100 µM | 0.489 µM | 26 µM | 16 µM | > 80.6 µM | 0.495 µM | 21.2 µM | 0.331 µM | 3.75 µM | 1810 nM | > 100 µM
C=C[C@@]1(C)CC(=O)[C@]2(O)[C@@]3(C)[C@@H](O)CCC(C)(C)[C@@H]3[C@H](O)[C@@H](OC(C)=O)[C@@]2(C)O1 | – | > 100 µM | – | > 100 µM | – | > 100 µM | – | > 100 µM | – | > 100 µM | – | > 100 µM | – | > 100 µM | – | > 100 µM | – | > 100 µM | – | > 100 µM
Nc1ccc2c(SCC(=O)Nc3ccccc3-c3ccccc3NC(=O)CSc3c4ccccc4nc4cc(N)ccc34)c3ccccc3nc2c1 | – | 43 µM | – | > 100 µM | – | 59 µM | – | 85.1 µM | – | 73.2 µM | – | > 93.8 µM | – | 63.4 µM | – | > 73.5 µM | – | 56.5 µM | – | > 63.3 µM
CC[C@H](C)[C@H](NC(=O)N[C@@H](C)c1ccccc1)C(=O)N(C)[C@H](C[C@@H](OC(C)=O)c1nc(C(=O)N[C@@H](Cc2ccccc2)C[C@H](C)C(=O)OC)cs1)C(C)C | 20.1 µM | 57.1 µM | 23.9 µM | > 100 µM | 15.9 µM | 46.7 µM | 21.4 µM | 74.9 µM | 35.4 µM | > 100 µM | 25.4 µM | > 100 µM | 33 µM | > 100 µM | 3.27 µM | 13.3 µM | 6.96 µM | > 100 µM | 97900 nM | > 100 µM
COc1cc(/C=C2\C(=O)Nc3ccc(Br)cc32)cc(OC)c1OC | 8.18 µM | > 100 µM | 4.82 µM | > 100 µM | 15.7 µM | > 100 µM | 1.28 µM | 19.3 µM | 34.3 µM | > 100 µM | 3.37 µM | > 100 µM | 20.3 µM | 81.4 µM | 2.02 µM | 7.19 µM | 5.96 µM | > 100 µM | 3060 nM | > 100 µM
CC(C)c1ccc2c(c1)c(SC(C)(C)C)c(CC(C)(C)C(=O)O)n2Cc1ccc(Cl)cc1 | 8.46 µM | 21.9 µM | 4.27 µM | 29.1 µM | 16.3 µM | 36.5 µM | 9.79 µM | 22.5 µM | 6.81 µM | 19.6 µM | 8.8 µM | 23.4 µM | 12.4 µM | 28.9 µM | 10.2 µM | 26.1 µM | 11.8 µM | 24 µM | 9860 nM | 27.3 µM
Cc1ccc2c(C(C[N+](=O)[O-])c3ccco3)c(-c3ccccc3)[nH]c2c1 (stereo not given) | 31.7 µM | > 100 µM | 34.1 µM | > 100 µM | 12.2 µM | > 100 µM | 48.8 µM | > 100 µM | 84.8 µM | > 100 µM | 7.28 µM | > 100 µM | 16 µM | > 100 µM | 3.04 µM | 10.8 µM | 26.8 µM | > 100 µM | 23000 nM | > 100 µM
CCn1c(-c2nonc2N)nc2c(C#CC(C)(C)O)ncc(OC[C@@H]3CCCN3)c21 | 2.94 µM | 7.62 µM | 2.33 µM | > 25 µM | 6.95 µM | > 25 µM | 4.77 µM | > 22.8 µM | 6.4 µM | > 25 µM | > 25 µM | > 25 µM | 7.07 µM | 24.9 µM | 11.6 µM | > 25 µM | 7.2 µM | > 25 µM | 408 nM | > 25 µM
Cc1nc2cc(Nc3nc(Nc4ccc(F)cc4)nc(-c4ccc(Cl)cc4)n3)ccc2n1Cc1ccccc1 | 3.17 µM | 59.8 µM | 3.35 µM | > 100 µM | 4.42 µM | > 100 µM | 6.14 µM | 39.8 µM | 3.93 µM | 22 µM | 3.77 µM | > 100 µM | 7.36 µM | 27.3 µM | 3.6 µM | > 100 µM | 6.3 µM | > 100 µM | 2440 nM | 24.8 µM
Cc1cc(C)c2nccc(NCCCN(C)C)c2c1[N+](=O)[O-] | – | 28.5 µM | – | > 100 µM | – | 33.7 µM | – | > 100 µM | – | > 100 µM | – | 30.7 µM | – | > 100 µM | – | > 100 µM | – | > 100 µM | – | > 100 µM
CN1CCN(CCCOc2ccc3ncnc(Nc4ccc(Oc5cccc(F)c5)c(Cl)c4)c3c2)CC1 | 1.86 µM | 3.64 µM | 1.97 µM | 8.21 µM | 1.79 µM | 3.62 µM | 1.7 µM | 3.3 µM | 2.19 µM | 6.42 µM | 1.27 µM | 2.92 µM | 1.75 µM | 3.76 µM | 1.67 µM | 3.19 µM | 1.75 µM | 3.27 µM | 1340 nM | 4.35 µM
CCOC(=O)C(=Cc1c(-c2ccccc2)[nH]c2ccccc12)C(=O)OCC | 4.81 µM | 16.3 µM | 2.58 µM | 9.75 µM | 4.16 µM | 15.6 µM | 5.17 µM | 38.5 µM | 4.08 µM | 17.9 µM | 4.07 µM | 38.4 µM | 4.27 µM | 14.1 µM | 3.36 µM | 13.6 µM | 4.64 µM | 21.7 µM | 2620 nM | 8.43 µM
COc1ccc(-c2nn3ncccc3c2-c2ccnc(Nc3cccc(C(F)(F)F)c3)n2)cc1 | 17 µM | > 25 µM | 6.73 µM | > 25 µM | 9.01 µM | > 25 µM | 12.4 µM | > 25 µM | 8.74 µM | > 25 µM | 7.97 µM | > 25 µM | 16.8 µM | > 25 µM | 10.1 µM | > 25 µM | 7.86 µM | > 25 µM | 6530 nM | > 25 µM
COc1ccc2nc3cc(Cl)ccc3c(Nc3ccc(O)c(CN4CCCC4)c3)c2c1 | 1.83 µM | 3.48 µM | 3.06 µM | 14.6 µM | 1.89 µM | 3.54 µM | 14.5 µM | 28.1 µM | 2.01 µM | 4.87 µM | 2.6 µM | 10.3 µM | 2.14 µM | 5.34 µM | 1.76 µM | 3.52 µM | 1.71 µM | 3.51 µM | 2180 nM | 6.46 µM
Cc1ccc(NCCNCC(O)CO)c2c(=O)c3ccccc3sc12 (stereo not given) | 1.32 µM | 3.02 µM | 1.86 µM | 4.55 µM | 1.55 µM | 3.13 µM | 2.47 µM | 10.5 µM | 1.92 µM | 4.77 µM | 1.29 µM | 2.72 µM | 1.35 µM | 2.95 µM | 1.52 µM | 3.1 µM | 1.54 µM | 3.08 µM | 1790 nM | 4.08 µM
COC(=O)C1=C(C(=O)OC)C(C(=O)OC)C(C(=O)OC)C(C(=O)OC)(C(=O)OC)C(C(=O)OC)=C1C(=O)OC (stereo not given) | – | 16.8 µM | – | 8.72 µM | – | 29.8 µM | – | 32.1 µM | – | 25.2 µM | – | 21.2 µM | – | 58.1 µM | – | 37.5 µM | – | 31 µM | – | 50.8 µM
N#CC1=C(N)Oc2c(sc3c(Br)cccc23)C1c1ccc(F)cc1 (stereo not given) | 0.366 µM | 1.69 µM | 0.381 µM | 13 µM | 0.3 µM | 14.9 µM | 1.01 µM | 19.3 µM | 0.76 µM | 24.4 µM | 0.39 µM | 11.4 µM | 0.354 µM | 17.9 µM | 0.0691 µM | 11.2 µM | 0.512 µM | 23.5 µM | 340 nM | 19.7 µM
